The supplement of paper PMC10307832

Columns and labels:
Assay in all cases: relative viability (nuclei count vs DMSO), 5 days (fraction); higher = more cells survive
Olaparib + Bortezomib = compound: O=C(c1cc(Cc2n[nH]c(=O)c3ccccc23)ccc1F)N1CCN(C(=O)C2CC2)CC1 [Olaparib] + CC(C)C[C@H](NC(=O)[C@H](Cc1ccccc1)NC(=O)c1cnccn1)B(O)O [Bortezomib] (partner 0.002 µM)
Summary of the method: (§1)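 Relative viability is defined as nuclei in treated wells over nuclei in vehicle wells. Duplicate plates were run and medians reported. Lung cancer cell lines in 1536-well plates were dosed by pin tool one day after seeding, with one drug or with a fixed anchor-drug dose plus five library-drug doses (not always all listed) in √10 steps, and nuclei were counted after 5 days.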

Carfilzomib + Linsitinib = compound: CC(C)C[C@H](NC(=O)[C@H](CCc1ccccc1)NC(=O)CN1CCOCC1)C(=O)N[C@@H](Cc1ccccc1)C(=O)N[C@@H](CC(C)C)C(=O)[C@@]1(C)CO1 [Carfilzomib] + C[C@]1(O)C[C@@H](c2nc(-c3ccc4ccc(-c5ccccc5)nc4c3)c3c(N)nccn32)C1 [Linsitinib] (partner 1 µM)
Summary of the method: as §1

Carfilzomib + Navitoclax = compound: CC(C)C[C@H](NC(=O)[C@H](CCc1ccccc1)NC(=O)CN1CCOCC1)C(=O)N[C@@H](Cc1ccccc1)C(=O)N[C@@H](CC(C)C)C(=O)[C@@]1(C)CO1 [Carfilzomib] + CC1(C)CCC(c2ccc(Cl)cc2)=C(CN2CCN(c3ccc(C(=O)NS(=O)(=O)c4ccc(N[C@H](CCN5CCOCC5)CSc5ccccc5)c(S(=O)(=O)C(F)(F)F)c4)cc3)CC2)C1 [Navitoclax] (partner 0.5 µM)
Summary of the method: as §1

Crizotinib + Linsitinib = compound: C[C@@H](Oc1cc(-c2cnn(C3CCNCC3)c2)cnc1N)c1c(Cl)ccc(F)c1Cl [Crizotinib] + C[C@]1(O)C[C@@H](c2nc(-c3ccc4ccc(-c5ccccc5)nc4c3)c3c(N)nccn32)C1 [Linsitinib] (partner 1 µM)
Summary of the method: as §1

Cell Line	relative viability (Olaparib + Bortezomib; first compound 0.08 µM)	relative viability (Olaparib + Bortezomib; first compound 0.253 µM)	relative viability (Olaparib + Bortezomib; first compound 2.53 µM)	relative viability (Olaparib + Bortezomib; first compound 8 µM)	relative viability (Carfilzomib + Linsitinib; first compound 0.001 µM)	relative viability (Carfilzomib + Linsitinib; first compound 0.003162 µM)	relative viability (Carfilzomib + Linsitinib; first compound 0.01 µM)	relative viability (Carfilzomib + Linsitinib; first compound 0.03162 µM)	relative viability (Carfilzomib + Linsitinib; first compound 0.1 µM)	relative viability (Carfilzomib + Navitoclax; first compound 0.001 µM)	relative viability (Carfilzomib + Navitoclax; first compound 0.003162 µM)	relative viability (Carfilzomib + Navitoclax; first compound 0.01 µM)	relative viability (Carfilzomib + Navitoclax; first compound 0.03162 µM)	relative viability (Carfilzomib + Navitoclax; first compound 0.1 µM)	relative viability (Crizotinib + Linsitinib; first compound 0.01 µM)	relative viability (Crizotinib + Linsitinib; first compound 0.03162 µM)	relative viability (Crizotinib + Linsitinib; first compound 0.1 µM)	relative viability (Crizotinib + Linsitinib; first compound 0.3162 µM)	relative viability (Crizotinib + Linsitinib; first compound 1 µM)
LXF-289	1.09	0.941	1.03	0.992	1	1.03	0.982	0.097	0.083	0.915	0.974	0.935	0.0853	0.0461	0.91	0.972	0.983	0.906	0.937
NCI-H23	1.28	0.717	0.581	0.482	0.537	0.708	0.567	0.206	0.12	0.797	0.799	0.987	0.227	0.152	0.557	0.642	0.619		0.774
NCI-H322M	1.27	1.19	1.2	1.24	0.806	0.929	0.913	0.99	0.489	1.36	1.29	1.01	1.22	0.559	0.811	0.954	1	0.96	0.903
NCI-H441		0.175	0.489	0.382	0.569	0.451	0.233	0.104	0.115	0.534	0.571	0.208	0.144	0.145	0.564	0.498	0.575	0.382	0.551
NCI-H460	1.14	1.02	0.891	0.277	0.759	0.891	0.719	0.0155	0.0133	1.08	1.21	1.17	0.357	0.0107	0.736	0.84	0.718	0.847	
NCI-H520	0.788	0.336	0.671	0.209	1.01	1.09	0.667	0.152	0.151	1.04	1.37	0.797	0.183	0.168	0.831	0.97	0.985	1.04	1.05
NCI-H596	1.3	0.878	0.865	0.794	1.11	1.03	1.16	0.628	0.449	0.906	1.04	1.14	0.353	0.153	0.971	1.16	1.07	1.19	1.15
NCI-H647	1.18	0.942	0.864	0.416	0.942	1.16	0.761	0.0416	0.0315		1.33	0.841	0.087	0.0294	1.2	0.92	1.12	1.04	1.2
